The values below come from US9102656B2, “Use of rosuvastatin lactols as medicaments” (RedX Pharma Limited, priority 2009, dated 2015).

In test [1] the target is HMG-CoA reductase (Homo sapiens (Human), UniProt P04035). In words: HMG-CoA Reductase assay kit (spectrophotometric NADPH absorbance at 340 nm). In kind it is biochemical. Particulars: inhibitor concentrations varied from 0 nM to 50 nM; 37° C. How it is done:
All assays were carried out in a reaction buffer containing […] KxPO4 at pH 7.2, 1 mM EDTA, 500 mM KCl and 1 mg/ml BSA. The concentrations of NADPH and HMG-CoA were both 200 μM. […] Absorbance readings were then taken every 20 seconds for 600 seconds. […] After these were identified, assays were carried out varying their concentrations from 0 nM to 50 nM allowing IC50 values to be calculated.
Add a buffer to all samples. • b. […] Add the reconstituted NADPH to all samples. • d. Add Substrate Solution (HMG-CoA) to all samples. • e. […] Mix the samples thoroughly. 3. The kinetics programme was started immediately.

The test system of test [2] is plasma triglycerides. Nature of the test: Rat plasma triglyceride levels after 3 or 5 days BID oral treatment. It counts as in vivo. Particulars: male SD rats, 25 mg/kg po BID for 3 or 5 days, plasma 16 hours after last dose. How it is done: The measurement of the change in rat plasma triglyceride levels is considered to be a fair test for determining HMG CoA reductase activity.
112 male SD rats (Harlan) were housed in groups of 6 under a 12 h light dark cycle (lights on 07.00 h) with free access to food (normal laboratory chow) and water. Animals between 148-183 g were allocated to treatment groups of 8 balanced by body weight and treatments were balanced across cages.
Four rosuvastatin analogues were made up in 10% PEG300/10% cremophor/80% methyl cellulose (0.5%) (vehicle 1) to make a 5 mg/mL solution. The rosuvastatin compounds used were:
Rosuvastatin Lactol n-propyl acetal (diastereomeric ratio 2/1) (BPL001); Rosuvastatin lactol n-propyl acetal nicotinoyl ester (diastereomeric ratio 2/1) (BPL002); Rosuvastatin lactol iso-propyl acetal benzyl ether (BPL003); and Rosuvastatin lactol methyl acetal nicotinoyl ester (diastereomeric ratio 2/1) (BPL004).
Rosuvastatin was formulated in 0.5% Tween in 0.5% methyl cellulose (vehicle 2) at 5 mg/kg as a suspension.
Rats were orally dosed with vehicle 1, one of the four rosuvastatin analogues in vehicle 1 (25 mg/kg), vehicle 2 or rosuvastatin in vehicle 2 (25 mg/kg po), BID for 3 or 5 days. […]
Data for each time-point were analysed by 1-way ANOVA and post-hoc Dunnett's test.

Counter-ions that a name gives are not always drawn.

Chain of HMG-CoA reductase (P04035 340-888): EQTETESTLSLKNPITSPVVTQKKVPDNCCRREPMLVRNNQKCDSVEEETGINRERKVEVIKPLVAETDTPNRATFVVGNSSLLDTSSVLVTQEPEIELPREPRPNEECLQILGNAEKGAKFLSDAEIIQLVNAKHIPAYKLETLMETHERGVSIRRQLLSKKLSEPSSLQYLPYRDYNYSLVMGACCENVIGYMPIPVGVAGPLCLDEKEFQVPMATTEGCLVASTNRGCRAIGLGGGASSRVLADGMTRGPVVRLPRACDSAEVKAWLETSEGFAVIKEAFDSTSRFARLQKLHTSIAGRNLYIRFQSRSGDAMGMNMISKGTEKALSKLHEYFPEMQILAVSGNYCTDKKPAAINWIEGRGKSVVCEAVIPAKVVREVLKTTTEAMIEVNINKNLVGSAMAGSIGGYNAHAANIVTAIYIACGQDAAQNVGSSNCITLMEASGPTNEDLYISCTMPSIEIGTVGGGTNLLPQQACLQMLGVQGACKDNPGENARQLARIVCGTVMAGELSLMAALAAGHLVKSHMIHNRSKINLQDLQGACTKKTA

As usually defined, the IC50 is the point on the concentration scale where inhibition reaches its midpoint. A high value points to weaker potency. With `COC1C[C@H](OC(=O)c2cccnc2)C[C@@H](/C=C/c2c(-c3ccc(F)cc3)nc(N(C)S(C)(=O)=O)nc2C(C)C)O1` (stereo partly drawn), the IC50 in test [1] was under 1 nM.

On to `CC(C)c1nc(N(C)S(C)(=O)=O)nc(-c2ccc(F)cc2)c1/C=C/[C@@H](O)C[C@@H](O)CC(=O)O` [Rosuvastatin calcium salt], for which the IC50 in test [1] came to 4 nM.

Consider `CC(C)c1nc(N(C)S(C)(=O)=O)nc(-c2ccc(F)cc2)c1C=CC(O)CC(O)CC(=O)O` (stereo not drawn) [rosuvastatin, 7-[4-(4-fluorophenyl)-6-(1-methylethyl)-2-(methyl-methylsulfonyl-amino)-pyrimidin-5-yl]-3,5-dihydroxy-hept-6-enoic acid], for which the “effect on plasma triglycerides” value in test [2] was “marked reduction in plasma triglycerides”.
